Experimental data from PMC11740379, “Novel Enyne-Modified 1,4-Thiazepines as Epidermal Growth Factor Receptor Inhibitors: Anticancer and Computational Studies” (ACS Omega, 2024).
Read-outs that look alike come from different tables or passages of the source.

Columns and labels:
EGFRT790M kinase = EGFRT790M kinase (Homo sapiens, UniProt P00533, T790M); assay: EGFR kinase inhibition assay (HTRF KinEASE-TK); assay type: biochemical
Procedure: The inhibitory effects of the target compounds on various EGFR kinases were assessed using a homogeneous time-resolved fluorescence (HTRF) assay, employing the HTRF KinEASE-TK kit (Cat# 62TK0PEC, Cisbio).[18] TZEP7 was tested at a range of diluted concentrations in the presence of 1% dimethyl sulfoxide (DMSO), with the kinase and compounds preincubated for 5 min. The reactions were initiated by adding ATP and TK-substrate-biotin, followed by a 60 min incubation at room temperature. The reactions were then stopped using a stop buffer containing 62.5 nM Strep-XL665 and TK antibody (Ab)-Cryptate. After a 1 h incubation of the plate, readings were taken on a microplate reader under standard HTRF conditions. IC50 values were calculated using GraphPad Prism 5.0 software. Each reaction was duplicated, and at least three independent determinations were conducted. The data were analyzed using GraphPad Prism.

PC-3 cells = assay: Annexin V-FITC/PI apoptosis detection by flow cytometry; assay type: cell-based, human; details: PC-3, IC50 concentration, 72 h
Text: (§1) Annexin V, a protein with a high affinity for phosphatidylserine (PS), is pivotal in detecting apoptosis. Normally, PS is located in the inner leaflet of the plasma membrane, but during apoptosis, it moves to the outer leaflet, making it a key marker for apoptotic cells.[16] Annexin V binds specifically to PS on the surface of these cells. A secondary dye like propidium iodide (PI) is used to distinguish apoptotic cells from viable ones with intact membranes. We can identify and quantify viable cells (annexin V–, PI–) and apoptotic cells (annexin V+, PI+) by analyzing fluorescence patterns. Here, we employed the FITC Annexin V Apoptosis Detection Kit I from BD Pharmingen. Cells were seeded at a density of 10^6 cells per well in a 6-well plate and exposed to IC50 concentration of TZEP7 for 72 h. Following treatment, cells were rinsed with cold PBS, resuspended in 1 mL of 1× Binding Buffer, and stained with 5 μL of Annexin V FITC and 5 μL of PI. After vortexing, the samples were incubated at room temperature (25 °C) for 15 min in the dark. Postincubation, 400 μL of 1× Binding Buffer was added to each sample, and apoptosis was measured using a BD Accuri C6 Flow Cytometer. Cisplatin was used as an apoptosis-inducing reference drug.

A549 cells = assay: as above; assay type: cell-based, human; details: A549, IC50 concentration, 72 h
Text: as §1

MCF-7 cells [1] = assay: as above; assay type: cell-based, human; details: MCF-7, IC50 concentration, 72 h
Text: as §1

Caspase-8 mRNA = assay: qRT-PCR of apoptosis-related mRNA; assay type: cell-based, human; details: 72 h, vs untreated control
Procedure: (§2) To measure the mRNA expression levels of apoptosis-related genes B-cell lymphoma 2 (Bcl-2), Bcl-2-associated X protein (Bax), Cyclin-dependent kinase 2 (CDK2), and Cyclin E, total mRNA was extracted from cells treated with compound 6f using Trizol reagent (Sigma). cDNA was synthesized from the total mRNA using the Qiagen cDNA synthesis kit according to the manufacturer’s instructions. The following primers, each at a concentration of 350 nM, were employed: Bcl-2; forward ([…]), reverse ([…]); Bax; forward ([…]), reverse ([…]); Caspase-8; forward ([…]), reverse ([…]); Caspase-9; forward (TGTCTACGGCACAGATGGA), reverse (GGACTCGTCTTCAGGGGA); EGFRWT: forward ([…]), reverse (CCTGTGCCAGGGACCTTAC−); EGFRT790 M forward ([…]), reverse ([…]); human GAPDH; forward ([…]), reverse (AGATGGTGATGGGCTTCCC). The PCR mix was prepared with 1× buffer containing 0.2 mM dNTPs, 1.6 mM MgCl2, […] of each primer set, cDNA, and 0.25 U Taq polymerase. The PCR conditions were as follows: an initial denaturation at 95 °C for 60 s, followed by 50 cycles of 95 °C for 15 s, 60 °C for 15 s, and 72 °C for 60 s. The cycle threshold (CT) for each replicate was normalized to the average CT of the endogenous control (GAPDH). The relative quantification of gene expression was calculated using the comparative CT method.[17]

Bcl-2 mRNA = assay: qRT-PCR of apoptosis-related mRNA; assay type: cell-based, human; details: 72 h, vs untreated control
Procedure: as §2

Caspase-9 mRNA = assay: qRT-PCR of apoptosis-related mRNA; assay type: cell-based, human; details: 72 h, vs untreated control
Procedure: as §2

Bax mRNA = assay: qRT-PCR of apoptosis-related mRNA; assay type: cell-based, human; details: 72 h, vs untreated control
Procedure: as §2

MCF-7 cells [2] = assay: XTT cytotoxicity assay, breast cancer cells; assay type: cell-based, human
Procedure: The cells were cultured in RPMI medium (Sigma) supplemented with 10% heat-inactivated fetal bovine serum, 1% penicillin, and 1% L-glutamine, and incubated in a humidified CO2 atmosphere at 37 °C.
To evaluate the cytotoxic effects of TZEPs, which were dissolved in dimethyl sulfoxide (DMSO), the XTT assay (2,3-bis(2-methoxy-4-nitro-5-sulfophenyl)-2H-tetrazolium-5-carboxanilide) was employed. […] Following the incubation, 100 μL of XTT was added to each well, and the plates were incubated for an additional 4 h at 37 °C. The resulting color change was measured by recording the absorbance at 570 nm using a microplate reader (Tecan).
Conversely, an SI less than 1 means the drug is more toxic to normal cells than to target cells, which is undesirable in therapeutic contexts.

Sequence of EGFRT790M kinase (P00533 25-1210 T790M): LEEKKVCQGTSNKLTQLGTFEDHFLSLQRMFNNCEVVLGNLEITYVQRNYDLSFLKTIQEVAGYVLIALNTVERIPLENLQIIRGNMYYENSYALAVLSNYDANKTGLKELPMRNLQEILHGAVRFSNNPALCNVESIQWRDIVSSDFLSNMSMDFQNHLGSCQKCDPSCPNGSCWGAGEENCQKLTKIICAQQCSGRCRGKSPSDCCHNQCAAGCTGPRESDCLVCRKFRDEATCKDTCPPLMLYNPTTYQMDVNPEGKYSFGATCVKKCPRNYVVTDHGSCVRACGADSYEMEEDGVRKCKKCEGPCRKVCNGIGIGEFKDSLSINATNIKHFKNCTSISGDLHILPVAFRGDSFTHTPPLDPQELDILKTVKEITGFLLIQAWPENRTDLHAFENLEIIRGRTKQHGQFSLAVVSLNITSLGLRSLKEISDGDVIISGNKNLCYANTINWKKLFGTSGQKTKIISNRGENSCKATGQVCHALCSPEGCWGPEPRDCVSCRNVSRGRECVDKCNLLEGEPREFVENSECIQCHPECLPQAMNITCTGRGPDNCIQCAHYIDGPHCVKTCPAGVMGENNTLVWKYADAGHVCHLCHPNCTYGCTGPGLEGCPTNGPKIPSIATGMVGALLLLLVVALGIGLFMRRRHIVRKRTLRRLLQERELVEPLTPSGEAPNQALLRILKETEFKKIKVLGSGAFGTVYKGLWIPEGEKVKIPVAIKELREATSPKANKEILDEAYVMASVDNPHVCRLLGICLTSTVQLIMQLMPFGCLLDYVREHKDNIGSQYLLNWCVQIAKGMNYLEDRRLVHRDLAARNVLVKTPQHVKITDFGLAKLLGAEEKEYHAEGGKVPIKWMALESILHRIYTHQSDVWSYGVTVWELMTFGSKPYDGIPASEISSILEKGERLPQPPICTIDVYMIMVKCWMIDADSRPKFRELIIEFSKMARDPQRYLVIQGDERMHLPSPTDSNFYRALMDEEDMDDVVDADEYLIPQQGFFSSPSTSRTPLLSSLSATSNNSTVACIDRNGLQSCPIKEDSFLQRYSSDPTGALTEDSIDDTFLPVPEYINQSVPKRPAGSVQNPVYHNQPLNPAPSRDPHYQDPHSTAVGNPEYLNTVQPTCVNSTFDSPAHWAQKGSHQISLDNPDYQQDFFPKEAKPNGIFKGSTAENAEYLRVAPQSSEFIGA

Cc1cc(C2=NCC(=CC#Cc3ccccc3)SC(c3ccc(Cl)cc3)=C2)ccc1F [TZEP7]
IC50 (EGFRT790M kinase): 0.28 µM
IC50 (EGFRT790M kinase; A549 cells): 0.22 µM
IC50 (EGFRT790M kinase; MCF-7 cells): 0.29 µM
cells in early apoptosis (PC-3 cells): 13.7%
cells in late apoptosis (PC-3 cells): 65.6%
cells in early apoptosis (A549 cells): 15.1%
cells in late apoptosis (A549 cells): 68.7%
cells in early apoptosis (MCF-7 cells [1]): 22.4%
cells in late apoptosis (MCF-7 cells [1]): 68.5%
induction of Caspase-8 mRNA level (Caspase-8 mRNA; A549, IC50 concentration): 3.8 fold
induction of Caspase-8 mRNA level (Caspase-8 mRNA; MCF-7, IC50 concentration): 4.2 fold
induction of Caspase-8 mRNA level (Caspase-8 mRNA; PC-3, IC50 concentration): 5.4 fold
reduction of Bcl-2 mRNA level (Bcl-2 mRNA; A549, IC50 concentration): 3.3 fold
reduction of Bcl-2 mRNA level (Bcl-2 mRNA; MCF-7, IC50 concentration): 3.4 fold
reduction of Bcl-2 mRNA level (Bcl-2 mRNA; PC-3, IC50 concentration): 4.3 fold
induction of Caspase-9 mRNA level (Caspase-9 mRNA; A549, IC50 concentration): 3.7 fold
induction of Caspase-9 mRNA level (Caspase-9 mRNA; MCF-7, IC50 concentration): 4.4 fold
induction of Caspase-9 mRNA level (Caspase-9 mRNA; PC-3, IC50 concentration): 3.6 fold
increase of Bax mRNA level (Bax mRNA; A549, IC50 concentration): 4.8 fold
increase of Bax mRNA level (Bax mRNA; MCF-7, IC50 concentration): 4.1 fold
increase of Bax mRNA level (Bax mRNA; PC-3, IC50 concentration): 4.3 fold
viability at 0.1 µM (MCF-7 cells [2]; Homo sapiens, MCF7, MCF-7, 0.1 μM, read-out: cell viability): 68%
viability at 1 µM (MCF-7 cells [2]; Homo sapiens, MCF7, MCF-7, 1 μM, read-out: cell viability): 54%
viability at 10 µM (MCF-7 cells [2]; Homo sapiens, MCF7, MCF-7, 10 μM, read-out: cell viability): 44%
viability at 50 µM (MCF-7 cells [2]; Homo sapiens, MCF7, MCF-7, 50 μM, read-out: cell viability): 28%
viability at 100 µM (MCF-7 cells [2]; Homo sapiens, MCF7, MCF-7, 100 μM, read-out: cell viability): 18%
IC50 (MCF-7 cells [2]; Homo sapiens, MCF7, XTT assay, exposure time of the IC50 not stated (24, 48, 72 h tested), read-out: IC50, breast cancer (MCF-7)): 14.1 ± 2.1 µM
IC50 (MCF-7 cells [2]; Homo sapiens, MCF7, dose–response curve of Figure 2, read-out: IC50, MCF-7, dose–response curve): 14.2 µM
Selectivity index (SI), breast cancer (MCF-7) (MCF-7 cells [2]; versus normal cells HEK-293): 3.85
